Test results as given in patent publication US9630947B2, “Therapeutic compounds and related methods of use” (OTSUKA PHARMACEUTICAL CO., LTD., priority 2009, dated 2017).

Target: T1, purified STEP46 enzyme (Homo sapiens, UniProt P54829)
T1 sequence (P54829 1-565): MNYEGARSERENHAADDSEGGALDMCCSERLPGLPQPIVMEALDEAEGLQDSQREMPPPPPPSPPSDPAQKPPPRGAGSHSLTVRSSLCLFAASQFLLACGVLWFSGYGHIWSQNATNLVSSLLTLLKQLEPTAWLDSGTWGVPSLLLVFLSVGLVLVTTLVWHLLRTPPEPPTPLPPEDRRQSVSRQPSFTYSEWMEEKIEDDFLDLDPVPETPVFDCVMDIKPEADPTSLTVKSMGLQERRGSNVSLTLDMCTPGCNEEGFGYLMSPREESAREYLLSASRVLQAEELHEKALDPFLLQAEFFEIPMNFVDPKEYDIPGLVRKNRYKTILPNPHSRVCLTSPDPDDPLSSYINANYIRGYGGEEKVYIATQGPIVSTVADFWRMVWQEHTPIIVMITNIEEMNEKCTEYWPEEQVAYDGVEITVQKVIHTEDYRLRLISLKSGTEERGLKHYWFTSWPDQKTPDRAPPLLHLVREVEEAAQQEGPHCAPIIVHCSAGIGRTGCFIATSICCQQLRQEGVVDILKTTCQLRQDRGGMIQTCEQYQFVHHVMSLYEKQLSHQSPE
Assay: STEP46 biochemical assay (DiFMUP fluorescence phosphatase assay)
Details: DiFMUP 10 μM, read-out: STEP IC50
Experimental: STEP46 Biochemical Assays
Serial dilutions of compounds were performed in 100% DMSO and 1 uL of compounds were dispensed into 384-well black polystyrene plates (Corning, NY). Compounds were incubated with 24 uL of buffer containing 50 mM Hepes, 1 mM DTT, 0.02% Brij35, 1 ng/well purified STEP46 enzyme for 30 min at room temperature. The reaction was initiated by addition of 25 uL of DiFMUP (6, 8-difluoro-4-methylumbelliferyl phosphate) (InVitrogen, CA) with a final concentration of 10 μM and incubated at 27° C. for 90 min. Final DMSO concentration is 2%. Plates were read with florescence intensity at excitation/emission of 360/460 nm using a PheraStar plate reader (BMG Labtech, NC).
Data were expressed as percentage (%) inhibition of enzyme activity. 0% inhibition is defined as the RFUs (relative fluorescence units) in the absence of compounds and 100% inhibition is defined as RFUs in the absence of STEP46 enzyme. IC50 values of compounds with inhibitory activity against STEP46 were determined by GraphPad Prism (version 4.03) using four parameter logistic equation. Some compounds act as activators. For compounds showing STEP46 enzymatic activation, data are represented as percentage of inhibition but with negative values at three representative concentrations (25, 50 and 100 uM).

| IC50 [nM] | Structure (SMILES) |
| --- | --- |
| < 1000 | COc1ccc2nc(-c3cccnc3)nc(Nc3nc(-c4ccc(F)cc4)cs3)c2c1 [Compound 419] |
| 1000 to 10000 | N#Cc1cccc(Nc2nc(-c3ccnnc3)nc3cc(Cl)ccc23)c1 [Compound 1203] |
| < 1000 | COc1ccc2nc(-c3cccnc3)nc(Nc3ccc4c(C)cc(=O)oc4c3)c2c1 [Compound 316] |
| > 10000 | FC1(F)Oc2ccc(Nc3nc(-c4cncnc4)nc4ccccc34)cc2O1 [Compound 1173] |
| < 1000 | COc1ccc2nc(-c3cccnc3)nc(Nc3nc(-c4ccc(Cl)cc4)cs3)c2c1 [Compound 399] |
| 1000 to 10000 | Fc1ccc(Nc2nc(-c3cccnc3)nc3ccc(-c4ccoc4)cc23)cc1Cl [Compound 647] |
| < 1000 | Fc1ccc(Nc2nc(-c3ccnnc3)nc3ccccc23)cc1Cl [Compound 1216] |
| < 1000 | Fc1ccc(Nc2nc(-c3cccnc3)nc3cc(-c4ccccc4)ccc23)cc1Cl [Compound 692] |
| 1000 to 10000 | COc1ccc2nc(-c3cccnc3)nc(Nc3nnc(-c4ccc(F)cc4)s3)c2c1 [Compound 423] |
| 1000 to 10000 | N#Cc1cccc(Nc2nc(-c3cnccn3)nc3cc(Cl)ccc23)c1 [Compound 1144] |
| 1000 to 10000 | COc1ccccc1-c1ccc2c(Nc3ccc(F)c(Cl)c3)nc(-c3cccnc3)nc2c1 [Compound 682] |
| > 10000 | CNc1nc(-c2cccnc2)nc2c(C)c(-c3ccccc3)ccc12 [Compound 1454] |
| 1000 to 10000 | COc1ccc2nc(-c3cccnc3)nc(Oc3ccc(Cl)c(Cl)c3)c2c1 [Compound 344] |
| 1000 to 10000 | COc1ccc2nc(-c3cccnc3)nc(Nc3ccc(F)cc3Cl)c2c1 [Compound 933] |
| 1000 to 10000 | Fc1ccc(Nc2nc(-c3cnccn3)nc3cc(Cl)ccc23)cc1F [Compound 1142] |
| 1000 to 10000 | Fc1ccc(Nc2nc(-c3cccnc3)nc3cc(-c4cccc(F)c4F)ccc23)cc1Cl [Compound 697] |
| 1000 to 10000 | COc1ccc2nc(-c3cccnc3)nc(Nc3nc4ccccc4n3C)c2c1 [Compound 407] |
| 1000 to 10000 | CNc1nc(-c2cccnc2)nc2cc(-c3cccc(Cl)c3)ccc12 [Compound 1353] |
| < 1000 | Clc1cc(Cl)cc(Nc2nc(-c3ccnnc3)nc3ccccc23)c1 [Compound 1223] |
| 1000 to 10000 | Fc1ccc(-c2ccc3nc(-c4cccnc4)nc(Nc4ccc(F)c(Cl)c4)c3c2)cc1F [Compound 672] |
| 1000 to 10000 | CNc1nc(-c2cccnc2)nc2cc(-c3cccc(F)c3F)ccc12 [Compound 1371] |

The next lines start with the compound.

| Structure (SMILES) | IC50 [nM] |
| --- | --- |
| Fc1ccc(Nc2nc(-c3cccnc3)nc3ccc(-c4cccs4)cc23)cc1Cl [Compound 649] | 1000 to 10000 |
| COc1ccc2nc(-c3cccnc3)nc(Nc3nc(-c4cccc(Br)c4)cs3)c2c1 [Compound 447] | 1000 to 10000 |
| CNc1nc(-c2cccnc2)nc2c(C)cc(-c3ccccc3OC)cc12 [Compound 1283] | > 10000 |
| Fc1ccc(Nc2nc(-c3cccnc3)nc3ccc(-c4ccc5c(c4)OCO5)cc23)cc1Cl [Compound 662] | < 1000 |
| Cc1cc(Cl)cc2c(Nc3ccc(F)c(Cl)c3)nc(-c3cnccn3)nc12 [Compound 1225] | 1000 to 10000 |
| N#Cc1ccc(-c2ccc3c(Nc4ccc(F)c(Cl)c4)nc(-c4cccnc4)nc3c2)cc1 [Compound 690] | 1000 to 10000 |
| NC(=O)c1ccccc1Nc1nc(-c2cnccn2)nc2ccc(Cl)cc12 [Compound 1157] | 1000 to 10000 |
| COc1ccc2nc(-c3cnccn3)nc(Nc3ccc(Cl)c(Cl)c3)c2c1 [Compound 1234] | 1000 to 10000 |
| COc1ccc2nc(-c3cccnc3)nc(Nc3nc(-c4ccc(OC(F)(F)F)cc4)cs3)c2c1 [Compound 442] | < 1000 |
| CNc1nc(-c2cccnc2)nc2cc(C)c(-c3ccc(F)cc3F)cc12 [Compound 1415] | > 10000 |
| Clc1cc(Cl)cc(Nc2nc(-c3cnccn3)nc3cc(Cl)ccc23)c1 [Compound 1146] | 1000 to 10000 |
| CN(C)c1nc(-c2cccnc2)nc2ccc(-c3ccc(F)cc3F)cc12 [Compound 1381] | 1000 to 10000 |
| COc1ccc(OC)c(-c2ccc3nc(-c4cccnc4)nc(Nc4ccc(F)c(Cl)c4)c3c2)c1 [Compound 645] | 1000 to 10000 |
| Cc1cccc(-c2ccc3nc(-c4cccnc4)nc(Nc4ccc(F)c(Cl)c4)c3c2)c1 [Compound 632] | < 1000 |
| CNc1nc(-c2cccnc2)nc2c(C)c(-c3ccc(C#N)cc3)ccc12 [Compound 1452] | < 1000 |
| CNc1nc(-c2cccnc2)nc2ccc(-c3cc(F)c(F)cc3F)cc12 [Compound 1376] | 1000 to 10000 |
| COc1ccc2nc(-c3cccnc3)nc(Nc3nc(CC(C)C)cs3)c2c1 [Compound 460] | 1000 to 10000 |
| COc1ccc2nc(-c3cccnc3)nc(Nc3ccc4c(c3)OC(F)(F)C(F)(F)O4)c2c1 [Compound 322] | > 10000 |
| CNc1nc(-c2cccnc2)nc2ccc(-c3ccc(F)c(C(F)(F)F)c3)cc12 [Compound 1401] | 1000 to 10000 |
| NC(=O)c1cccc(-c2ccc3c(Nc4ccc(F)c(Cl)c4)nc(-c4cccnc4)nc3c2)c1 [Compound 691] | < 1000 |
| NC(=O)c1ccccc1-c1ccc2c(Nc3ccc(F)c(Cl)c3)nc(-c3cccnc3)nc2c1 [Compound 683] | 1000 to 10000 |
| FC(F)Oc1cccc(Nc2nc(-c3ccnnc3)nc3cc(Cl)ccc23)c1 [Compound 1200] | 1000 to 10000 |
| COc1ccc2nc(-c3cccnc3)nc(Nc3cccc(Br)c3)c2c1 [Compound 425] | 1000 to 10000 |
| CNc1nc(-c2cccnc2)nc2c(C)c(-c3cccc(F)c3)ccc12 [Compound 1449] | > 10000 |

| Structure (SMILES) | IC50 [nM] |
| --- | --- |
| COc1ccc2nc(-c3cccnc3)nc(Nc3ccc4sc(=O)[nH]c4c3)c2c1 [Compound 326] | 1000 to 10000 |
| Fc1ccc(-c2ccc3c(Nc4ccc(F)c(Cl)c4)nc(-c4cccnc4)nc3c2)c(F)c1 [Compound 698] | < 1000 |
| Fc1ccc(Nc2nc(-c3cnccn3)nc3cc(Cl)ccc23)cc1Cl [Compound 1141] | < 1000 |
| COc1ccc2nc(-c3cccnc3)nc(Nc3nc(-c4ccccc4F)cs3)c2c1 [Compound 439] | < 1000 |
| COc1ccc2nc(-c3cccnc3)nc(Nc3ccc4nonc4c3)c2c1 [Compound 332] | < 1000 |
| COc1ccc2nc(-c3cccnc3)nc(Nc3nc(-c4cc(F)ccc4F)cs3)c2c1 [Compound 458] | < 1000 |
| CNc1nc(-c2cccnc2)nc2ccc(-c3ccc(F)cc3F)cc12 [Compound 1611] | 1000 to 10000 |
| COc1ccc(-c2ccc3nc(-c4cccnc4)nc(Nc4ccc(F)c(Cl)c4)c3c2)c(OC)n1 [Compound 655] | < 1000 |
| CNc1nc(-c2cccnc2)nc2ccc(-c3cccc(OCCOC)c3)cc12 [Compound 1680, 6-(3-(2-methoxyethoxyl)phenyl)-N-methyl-2-(pyridin-3-yl)quinazolin-4-amine] | 1000 to 10000 |
| COc1ccc2nc(-c3cccnc3)nc(Nc3nc(-c4ccccc4Cl)cs3)c2c1 [Compound 431] | < 1000 |
| CNc1nc(-c2cccnc2)nc2c(C)cc(-c3cccc(F)c3)cc12 [Compound 1280] | 1000 to 10000 |
| NC(=O)c1ccccc1Nc1nc(-c2cccnc2)nc2cc(-c3cc(F)ccc3F)ccc12 [Compound 706] | < 1000 |
| COc1ccc2nc(-c3cccnc3)nc(Nc3nc(-c4cccc(C#N)c4)cs3)c2c1 [Compound 453] | < 1000 |
| NC(=O)c1ccccc1Nc1nc(-c2cccnc2)nc2cc(-c3cccc(F)c3F)ccc12 [Compound 705] | < 1000 |
| N#Cc1ccccc1-c1ccc2nc(-c3cccnc3)nc(Nc3ccc(F)c(Cl)c3)c2c1 [Compound 639] | < 1000 |
| FC(F)(F)Oc1cccc(Nc2nc(-c3ccnnc3)nc3ccccc23)c1 [Compound 1182] | 1000 to 10000 |
| CNc1nc(-c2cccnc2)nc2ccc(-c3cccnc3OC)cc12 [Compound 1330] | > 10000 |
| COc1ccc(-c2ccc3c(Nc4ccc(F)c(Cl)c4)nc(-c4cccnc4)nc3c2)cc1 [Compound 680] | 1000 to 10000 |
| CNc1c(-c2cccc(C#N)c2)ccc2nc(-c3cccnc3)nc(C)c12 [Compound 1423] | > 10000 |
| CNC(=O)c1ccc(-c2ccc3nc(-c4cccnc4)nc(Nc4ccc(F)c(Cl)c4)c3c2)cc1 [Compound 667] | < 1000 |
| Fc1ccc(Nc2nc(-c3cccnc3)nc3ccc(-c4ccccc4)cc23)cc1Cl [Compound 631] | 1000 to 10000 |
| CNc1nc(-c2cccnc2)nc2c(C)cc(-c3ccc(OC)cc3)cc12 [Compound 1282] | 1000 to 10000 |
| CCOc1ccc2nc(-c3ccnnc3)nc(Nc3cccc(OC(F)F)c3)c2c1 [Compound 1167] | 1000 to 10000 |
| O=C(c1ccc(-c2ccc3nc(-c4cccnc4)nc(Nc4ccc(F)c(Cl)c4)c3c2)cc1)N1CCCCC1 [Compound 665] | 1000 to 10000 |
